Measured values from patent US20240304840A1 (priority 2023, published 2024).

Conditions: 1 mAh H-cell, 1 M sodium chloride, Selemion AMVN, about 20 days
From the text: An H-cell can be used for the coulombic efficiency tests. […] The electrolyte can be dissolved in about 1 M sodium chloride for electrochemical stability testing. The moles of anolyte and catholyte molecules present can be controlled to achieve the desired capacity of 1 mAh. […] Selemion™ anion exchange membrane (AMVN) can be used for the H-cells.

SMILES: C[N+](C)(C)CCC[N+](C)(C)CCCN1C(=O)c2ccc3c4ccc5c6c(ccc(c7ccc(c2c37)C1=O)c64)C(=O)N(CCC[N+](C)(C)CCC[N+](C)(C)C)C5=O [PDI-tetraammonium-Cl4]
- crossover in H-cell: almost no crossover
